Here are results for 16 molecules from ChEMBL document CHEMBL3132858, “6-Alkyl-, 6-aryl- or 6-hetaryl-7-deazapurine ribonucleosides as inhibitors of human or MTB adenosine kinase and potential antimycobacterial agents” (Medchemcomm, 2013).

In general, CC50 refers to the concentration giving 50% cytotoxicity. Usually pIC50 stands for the IC50 on a negative log10 scale, so that one unit is a factor of ten.

pIC50: −log10 of the molar value. Activity calls are given as the source filed them. No cut-off for these calls is given here.

Data set [1] can be described thus: Cytotoxicity against human MRC5 cells after 72 hrs by MTT assay. Type of data set: cell-based. For orientation: Formazan colour is commonly taken as a measure of viable cells.
The target of data set [2] is T1, Adenosine kinase (Homo sapiens, UniProt P55263). In words: Activity of human ADK assessed as compound conversion to 5'-phosphate form incubated at 37 degC for 20 mins by HPLC method. Details: concentration or dose not given beside the values.
Target sequence in this assay (P55263 2-362 limits assumed): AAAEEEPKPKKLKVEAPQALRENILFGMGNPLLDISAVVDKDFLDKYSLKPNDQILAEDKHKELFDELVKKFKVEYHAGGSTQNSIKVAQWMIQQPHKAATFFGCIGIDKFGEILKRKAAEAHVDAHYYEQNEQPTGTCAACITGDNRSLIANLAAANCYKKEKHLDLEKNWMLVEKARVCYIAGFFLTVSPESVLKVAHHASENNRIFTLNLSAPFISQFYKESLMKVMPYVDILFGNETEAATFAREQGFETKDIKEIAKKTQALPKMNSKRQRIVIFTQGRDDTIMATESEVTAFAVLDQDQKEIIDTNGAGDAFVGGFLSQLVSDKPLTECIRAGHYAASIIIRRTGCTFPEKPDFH
Data set [3] addresses Adenosine kinase (Mycobacterium tuberculosis (strain CDC 1551 / Oshkosh), UniProt P9WID4). In words: Inhibition of Mycobacterium tuberculosis ADK using [3H]-adenosine by scintillation counting method.
Data set [4] deals with Adenosine kinase (Mycobacterium tuberculosis (strain CDC 1551 / Oshkosh)) (UniProt P9WID4). As to the kind of experiment: Activity of Mycobacterium tuberculosis ADK assessed as compound conversion to 5'-phosphate form incubated at 37 degC for 20 mins by HPLC method.
The nature of data set [5]: Cytotoxicity against human BJ cells after 72 hrs by MTT assay. Format: cell-based.
Data set [6] concerns the target T1, Adenosine kinase. In words: Inhibition of human ADK using [3H]-adenosine by scintillation counting method.
Target sequence in this assay (P55263 whole entry): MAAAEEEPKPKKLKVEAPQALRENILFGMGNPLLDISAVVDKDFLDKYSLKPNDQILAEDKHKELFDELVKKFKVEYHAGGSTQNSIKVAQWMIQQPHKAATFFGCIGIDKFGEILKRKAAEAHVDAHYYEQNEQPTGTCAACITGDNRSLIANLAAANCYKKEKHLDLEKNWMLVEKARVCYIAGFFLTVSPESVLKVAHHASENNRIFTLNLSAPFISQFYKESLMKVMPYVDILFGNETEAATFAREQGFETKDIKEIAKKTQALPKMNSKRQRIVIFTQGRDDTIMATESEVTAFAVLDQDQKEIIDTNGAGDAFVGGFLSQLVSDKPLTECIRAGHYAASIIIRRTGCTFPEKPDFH

Adenosine kinase (Mycobacterium tuberculosis (strain CDC 1551 / Oshkosh), UniProt P9WID4), sequence (P9WID4 whole entry): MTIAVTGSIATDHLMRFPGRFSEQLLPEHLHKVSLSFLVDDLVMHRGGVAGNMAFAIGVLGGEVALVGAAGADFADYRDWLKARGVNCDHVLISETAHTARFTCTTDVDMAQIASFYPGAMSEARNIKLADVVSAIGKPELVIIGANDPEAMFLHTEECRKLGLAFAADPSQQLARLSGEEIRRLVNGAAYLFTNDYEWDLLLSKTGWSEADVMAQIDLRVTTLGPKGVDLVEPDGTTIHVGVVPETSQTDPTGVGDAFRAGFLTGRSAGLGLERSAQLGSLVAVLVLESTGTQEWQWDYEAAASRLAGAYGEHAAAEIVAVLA
Adenosine kinase (Mycobacterium tuberculosis (strain CDC 1551 / Oshkosh)), sequence (P9WID4 2-324 limits assumed): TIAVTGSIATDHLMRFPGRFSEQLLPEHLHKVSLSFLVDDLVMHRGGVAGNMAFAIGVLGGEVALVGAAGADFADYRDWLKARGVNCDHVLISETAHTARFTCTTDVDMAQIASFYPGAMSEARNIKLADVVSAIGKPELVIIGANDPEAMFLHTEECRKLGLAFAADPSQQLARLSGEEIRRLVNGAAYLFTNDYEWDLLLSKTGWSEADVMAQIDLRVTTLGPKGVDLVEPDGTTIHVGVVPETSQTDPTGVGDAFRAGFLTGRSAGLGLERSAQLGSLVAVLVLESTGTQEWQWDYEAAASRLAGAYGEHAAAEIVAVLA

As for `OC[C@H]1O[C@@H](n2ccc3c(-c4ccc(F)cc4)ncnc32)[C@H](O)[C@@H]1O`, the CC50 at 72 h in data set [1] and in data set [5] was greater than 50 µM in each case. On Adenosine kinase [2], the Activity came to 17%. In addition, the pIC50 was 7.10 against Adenosine kinase [3] and less than 5.00 at Adenosine kinase [6]. In addition, in data set [4], the outcome was inactive.
For `OC[C@H]1O[C@@H](n2cc(Cl)c3c(-c4ccccc4)ncnc32)[C@H](O)[C@@H]1O`, the results for the 50% cytotoxic concentration (CC50) at 72 h in data set [1] and in data set [5] were greater than 50 µM and 44.5 µM, respectively. Further, the Activity at Adenosine kinase [2] came out at 29%. Besides, the pIC50 at Adenosine kinase [3] is 6.66; at Adenosine kinase [6], less than 5.00. Also, the result in data set [4] was inactive.
On to `OC[C@H]1O[C@@H](n2cc(F)c3c(-c4ccsc4)ncnc32)[C@H](O)[C@@H]1O`, for which the half-maximal cytotoxic concentration (CC50) at 72 h stood at 50 µM in data set [1] and 0.62 µM in data set [5]. In addition, at Adenosine kinase [2], the Activity amounted to 51%. The pIC50 on Adenosine kinase [3] is 7.20; at Adenosine kinase [6] it was less than 5.00. Besides, in data set [4], the outcome was inactive.
Consider `OC[C@H]1O[C@@H](n2cc(F)c3c(-c4c[nH]cn4)ncnc32)[C@H](O)[C@@H]1O`, for which the CC50 at 72 h in data set [1] and in data set [5] was greater than 50 µM throughout. Moreover, the Activity at Adenosine kinase [2] stood at 11%. Also, the pIC50 at Adenosine kinase [3] is 6.00; on Adenosine kinase [6], less than 4.70. Besides, in data set [4], the outcome was inactive.
Take `OCc1ncnc2c1ccn2[C@@H]1O[C@H](CO)[C@@H](O)[C@H]1O`: the half-maximal cytotoxic concentration (CC50) at 72 h in data set [1] is 0.28 µM; in data set [5] it was 0.34 µM. Further, at Adenosine kinase [2], the Activity turned out to be 26%. Moreover, the negative-log IC50 (pIC50) is less than 5.30 against Adenosine kinase [3] and less than 5.00 against Adenosine kinase [6]. Besides, in data set [4], the outcome was inactive.
Turning to `OC[C@H]1O[C@@H](n2cc(Cl)c3c(-c4cccs4)ncnc32)[C@H](O)[C@@H]1O`, the CC50 at 72 h in data set [1] was greater than 50 µM; in data set [5], 4.97 µM. Also, the Activity on Adenosine kinase [2] came out at 100%. The figures for the pIC50 against Adenosine kinase [3] and against Adenosine kinase [6] were 7.15 and 5.92, respectively. In data set [4], the outcome was inactive.
On to `OC[C@H]1O[C@@H](n2cc(F)c3c(-c4ccc[nH]4)ncnc32)[C@H](O)[C@@H]1O`, for which the figures for the CC50 at 72 h in data set [1] and in data set [5] were 44.5 µM and 2.99 µM, respectively. Further, the Activity on Adenosine kinase [2] is 76%. The pIC50 at Adenosine kinase [3] is 7.15; against Adenosine kinase [6], less than 5.00. Further, the result in data set [4] was inactive.
In the case of `Cc1ncnc2c1ccn2[C@@H]1O[C@H](CO)[C@@H](O)[C@H]1O`, the CC50 at 72 h in data set [1] stood at 0.081 µM; in data set [5], 0.098 µM. Also, at Adenosine kinase [2], the Activity turned out to be 54%. For the same molecule, the figures for the negative-log IC50 (pIC50) against Adenosine kinase [3] and at Adenosine kinase [6] were 5.06 and less than 5.00, respectively. The result in data set [4] was inactive.
Take `OC[C@H]1O[C@@H](n2cc(F)c3c(-c4ccccc4)ncnc32)[C@H](O)[C@@H]1O`: the CC50 at 72 h in data set [1] and in data set [5] was greater than 50 µM throughout. Further, the Activity at Adenosine kinase [2] was 17%. The pIC50 against Adenosine kinase [3] is 6.70; against Adenosine kinase [6] it was less than 5.00. In addition, the result in data set [4] was inactive.
As to `OC[C@H]1O[C@@H](n2ccc3c(-c4ccc[se]4)ncnc32)[C@H](O)[C@@H]1O`, the results for the CC50 at 72 h in data set [1] and in data set [5] were greater than 50 µM and 1.52 µM, respectively. Moreover, the Activity at Adenosine kinase [2] turned out to be 43%. Also, the pIC50 is 7.52 on Adenosine kinase [3] and less than 5.00 on Adenosine kinase [6]. Also, in data set [4], the result was inactive.
For `OC[C@H]1O[C@@H](n2cc(F)c3c(-c4nccs4)ncnc32)[C@H](O)[C@@H]1O`, the 50% cytotoxic concentration (CC50) at 72 h in data set [1] is greater than 50 µM; in data set [5], 0.63 µM. Also, the Activity at Adenosine kinase [2] came out at 75%. Also, the negative-log IC50 (pIC50) at Adenosine kinase [3] is 7.55; against Adenosine kinase [6], less than 4.70. The result in data set [4] was inactive.
For the molecule `OC[C@H]1O[C@@H](n2ccc3c(-c4ccc[nH]4)ncnc32)[C@H](O)[C@@H]1O`, the half-maximal cytotoxic concentration (CC50) at 72 h in data set [1] and in data set [5] was greater than 50 µM throughout. Also, the Activity at Adenosine kinase [2] came out at 40%. In addition, the negative-log IC50 (pIC50) on Adenosine kinase [3] was 7.14; at Adenosine kinase [6], less than 5.00. In addition, the outcome in data set [4] was inactive.
With `OC[C@H]1O[C@@H](n2cc(Cl)c3c(-c4ccoc4)ncnc32)[C@H](O)[C@@H]1O`, the CC50 at 72 h in data set [1] was greater than 50 µM; in data set [5], 21.6 µM. For the same molecule, the Activity on Adenosine kinase [2] was 100%. Besides, the results for the negative-log IC50 (pIC50) against Adenosine kinase [3] and against Adenosine kinase [6] were 6.52 and 5.47, respectively. The outcome in data set [4] was inactive.
`OC[C@H]1O[C@@H](n2ccc3c(-c4c[nH]cn4)ncnc32)[C@H](O)[C@@H]1O`: the 50% cytotoxic concentration (CC50) at 72 h was greater than 50 µM in data set [1] and 0.21 µM in data set [5]. For the same molecule, the Activity at Adenosine kinase [2] was found to be 28%. In addition, the pIC50 on Adenosine kinase [3] was 6.11; on Adenosine kinase [6], less than 5.00. In data set [4], the result was inactive.
Regarding `OC[C@H]1O[C@@H](n2cc(Cl)c3c(-c4ccsc4)ncnc32)[C@H](O)[C@@H]1O`, the CC50 at 72 h in data set [1] was greater than 50 µM; in data set [5] it was 1.72 µM. Besides, the Activity at Adenosine kinase [2] turned out to be 97%. The pIC50 against Adenosine kinase [3] is 6.60; against Adenosine kinase [6], less than 5.00. Further, in data set [4], the result was inactive.
As to `OC[C@H]1O[C@@H](n2ccc3c(-c4cn[nH]c4)ncnc32)[C@H](O)[C@@H]1O`, the CC50 at 72 h in data set [1] is greater than 50 µM; in data set [5] it was 42.1 µM. In addition, the Activity at Adenosine kinase [2] was found to be 7%. Moreover, the negative logarithm of the IC50 (pIC50) is 6.17 against Adenosine kinase [3] and less than 4.70 against Adenosine kinase [6]. In addition, in data set [4], the outcome was inactive.
